Measured values reported in US20210220356A1, “DIHYDROPYRIMIDINE DERIVATIVES AND USES THEREOF IN THE TREATMENT OF HBV INFECTION OR OF HBV-INDUCED DISEASES” (Janssen Sciences Ireland Unlimited Company, priority 2018, published 2021).
Where two headings read alike, the source gives them in different places.

Experiments:
Format in all cases: cell-based
HBV = HBV inhibitory activity in HepG2.2.15 cells (HBV DNA in culture medium by q-PCR); conditions: HepG2.2.15 cells, 40,000 cells/well, 6 days of compound treatment, HBV DNA in culture medium by q-PCR, highest concentration 10 uM, read-out: EC50
Experimental: (§1) • HepG2.2.15 (the HepG2.2.15 cell line can be produced by transfection of the HepG2 cell line as described in Sells, Chen, and Acs 1987 (Proc. Natl. Acad. Sci. USA 84: 1005-1009), and the HepG2 cell line is available from ATCC® under number HB-8065™)
(§2) Seed the cell HepG2.2.15 cells into 96-well plate in 2% FBS culture medium at the density of 40,000 cells/well and 5,000 cells/well for HBV inhibitory activity and cytotoxicity determination, respectively. After seeding, incubate the cell plates at 37° C., 5% CO2 overnight. The next day, medium containing compounds is added to the cell to treat the cells for 6 days with medium refreshed once in the middle of the treatment. 8 dose points with 3 folds dilution of each compound were adopted and the highest concentration of the compounds is 10 uM and 100 uM for HBV inhibitory activity and cytotoxicity determination, respectively.
The HBV DAN change in the cell culture medium induced by the compounds is measured by q-PCR method. Briefly, the HBV DNA in the culture medium is extracted using QIAamp 96 DNA Blood Kit according to the manual and then quantified by q-PCR using the primers and probe in the table below.
(§3) EC50 and CC50 values are calculated by the GRAPHPAD PRISM software.

[1] = Cytotoxicity determination in HepG2.2.15 cells (CCK-8); conditions: human, HepG2.2.15 cells, HepG2.2.15 cells, 5,000 cells/well, 6 days of compound treatment, CCK-8 absorbance 450 nm, highest concentration 100 uM
Experimental: as §1, §2
(§4) After 6 days of compounds treatment, add 20 μl CCK-8 reagents to each well of cytotoxicity assay plates, incubate the plate at 37° C., 5% CO2 for 2.5 h and measure the absorbance at 450 nm wavelength, at the same time read the absorbance at 630 nm wavelength as reference.
as §3

HepG2.2.15 cells = test: as above; conditions: HepG2.2.15 cells, 5,000 cells/well, 6 days of compound treatment, CCK-8 absorbance 450 nm, highest concentration 100 uM
Experimental: as §1, §2, §4, §3

[2] = Hepatitis B virus, HepG2.2.15, 144 h

SMILES | EC50 (HBV) [nM] | CC50 at 6 days [1] [µM] | EC50 (HBV; [2]) [nM] | CC50 (HepG2.2.15 cells) [µM]
CCOC(=O)C1=C(C2CCc3nn(CCC(=O)O)cc3C2)NC(c2nccs2)=NC1c1ccc(F)c(F)c1Cl (single isomer, unassigned) [Compound 34a, 3-(5-(6-(2-chloro-3,4-difluorophenyl)-5-(ethoxycarbonyl)-2-(thiazol-2-yl)-3,6-dihydropyrimidin-4-yl)-4,5,6,7-tetrahydro-2H-indazol-2-yl)propanoic acid] | 385 | 27.5 | – | –
CCOC(=O)C1=C(C2CCc3nn(CCC(=O)O)cc3C2)NC(c2nccs2)=NC1c1ccc(F)c(F)c1C (single isomer, unassigned) [Compound 35b, 3-(5-(6-(3,4-Difluoro-2-methylphenyl)-5-(ethoxycarbonyl)-2-(thiazol-2-yl)-3,6-dihydropyrimidin-4-yl)-4,5,6,7-tetrahydro-2H-indazol-2-yl)propanoic acid] | 95.8 | 20.7 | – | –
CCOC(=O)C1=C(C2CCc3nn(CCC(=O)O)cc3C2)NC(c2nccs2)=NC1c1ccc(F)c(F)c1Br (single isomer, unassigned) [Compound 36d, 3-(5-(6-(2-Bromo-3,4-difluorophenyl)-5-(ethoxycarbonyl)-2-(thiazol-2-yl)-3,6-dihydropyrimidin-4-yl)-4,5,6,7-tetrahydro-2H-indazol-2-yl)propanoic acid] | – | 9.7 | 87.9 | –
CCOC(=O)C1=C(C2CCc3nn(CCC(=O)O)cc3C2)NC(c2nccs2)=NC1c1ccc(F)cc1Cl (single isomer, unassigned) [Compound 37b, 3-(5-(6-(2-Chloro-4-fluorophenyl)-5-(ethoxycarbonyl)-2-(thiazol-2-yl)-3,6-dihydropyrimidin-4-yl)-4,5,6,7-tetrahydro-2H-indazol-2-yl)propanoic acid] | 175 | 19.6 | – | –
CCOC(=O)C1=C(C2CCc3nn(CCC(=O)O)cc3C2)NC(c2nccs2)=NC1c1ccc(F)cc1C (single isomer, unassigned) [Compound 38a, 3-(5-(5-(Ethoxycarbonyl)-6-(4-fluoro-2-methylphenyl)-2-(thiazol-2-yl)-3,6-dihydropyrimidin-4-yl)-4,5,6,7-tetrahydro-2H-indazol-2-yl)propanoic acid] | 14.5 | 28.2 | – | –
CCOC(=O)C1=C(C2CCc3nn(CCC(=O)O)cc3C2)NC(c2nccs2)=NC1c1ccc(F)cc1Br (single isomer, unassigned) [Compound 39b, 3-(5-(6-(2-Bromo-4-fluorophenyl)-5-(ethoxycarbonyl)-2-(thiazol-2-yl)-3,6-dihydropyrimidin-4-yl)-4,5,6,7-tetrahydro-2H-indazol-2-yl)propanoic acid] | 165 | 13.1 | – | –
COC(=O)C1=C(C2CCc3[nH]ncc3C2)NC(c2nccs2)=NC1c1ccc(F)c(F)c1Cl (single isomer, unassigned) [Compound 65b, Methyl 4-(2-chloro-3,4-difluorophenyl)-6-(4,5,6,7-tetrahydro-1H-indazol-5-yl)-2-(thiazol-2-yl)-1,4-dihydropyrimidine-5-carboxylate] | 2670 | – | – | 6.3
COC(=O)C1=C(C2CCc3nc([C@H]4C[C@H](C(=O)O)C4)sc3C2)NC(c2nccs2)=NC1c1ccc(F)c(F)c1Cl (single isomer, unassigned) [Compound 68b, (trans)-3-(-6-(-6-(2-chloro-3,4-difluorophenyl)-5-(methoxycarbonyl)-2-(thiazol-2-yl)-3,6-dihydropyrimidin-4-yl)-4,5,6,7-tetrahydrobenzo[d]thiazol-2-yl)cyclobutanecarboxylic acid] | – | – | 9 | 8.3
COC(=O)C1=C(C2CCc3nc([C@H]4C[C@H](C(=O)O)C4)sc3C2)NC(c2nccs2)=NC1c1ccc(F)c(F)c1Cl (single isomer, unassigned) [Compound 68c, (trans)-3-(6-(-6-(2-chloro-3,4-difluorophenyl)-5-(methoxycarbonyl)-2-(thiazol-2-yl)-3,6-dihydropyrimidin-4-yl)-4,5,6,7-tetrahydrobenzo[d]thiazol-2-yl)cyclobutanecarboxylic acid] | 6.45 | – | – | 3.6
COC(=O)C1=C(C2CCc3nn(CCC(=O)O)cc3C2)NC(c2nccs2)=NC1c1ccc(F)c(F)c1Cl (single isomer, unassigned) [Compound 70d, 3-(-5-(6-(2-chloro-3,4-difluorophenyl)-5-(methoxycarbonyl)-2-(thiazol-2-yl)-3,6-dihydropyrimidin-4-yl)-4,5,6,7-tetrahydro-2H-indazol-2-yl)propanoic acid] | 8.03 | – | – | 24.3
COC(=O)C1=C(C2CCc3nc([C@H]4C[C@H](C(=O)O)C4)oc3C2)NC(c2nccs2)=NC1c1ccc(F)c(F)c1Cl (single isomer, unassigned) [Compound 72c, (trans)-3-(6-(6-(2-Chloro-3,4-difluorophenyl)-5-(methoxycarbonyl)-2-(thiazol-2-yl)-3,6-dihydropyrimidin-4-yl)-4,5,6,7-tetrahydrobenzo[d]oxazol-2-yl)cyclobutanecarboxylic acid] | 90.2 | – | – | 8.7
COC(=O)C1=C(C2CCc3nn(CCCC(=O)O)cc3C2)NC(c2nccs2)=NC1c1ccc(F)c(F)c1Cl (single isomer, unassigned) [Compound 74c, 4-(5-(6-(2-chloro-3,4-difluorophenyl)-5-(methoxycarbonyl)-2-(thiazol-2-yl)-3,6-dihydropyrimidin-4-yl)-4,5,6,7-tetrahydro-2H-indazol-2-yl)butanoic acid] | 9.1 | – | – | 18.2
COC(=O)C1=C(C2CCc3nn(C(C)(C)CC(=O)O)cc3C2)NC(c2nccs2)=NC1c1ccc(F)c(F)c1Cl (single isomer, unassigned) [Compound 82c, 3-(5-(-6-(2-chloro-3,4-difluorophenyl)-5-(methoxycarbonyl)-2-(thiazol-2-yl)-3,6-dihydropyrimidin-4-yl)-4,5,6,7-tetrahydro-2H-indazol-2-yl)-3-methylbutanoic acid] | 6.5 | – | – | 15.1
COC(=O)C1=C(C2CCc3nc([C@H]4CC[C@H](C(=O)O)CC4)oc3C2)NC(c2nccs2)=NC1c1ccc(F)c(F)c1Cl (single isomer, unassigned) [Compound 86b, (trans)-4-(6-(6-(2-chloro-3,4-difluorophenyl)-5-(methoxycarbonyl)-2-(thiazol-2-yl)-3,6-dihydropyrimidin-4-yl)-4,5,6,7-tetrahydrobenzo[d]oxazol-2-yl)cyclohexanecarboxylic acid] | – | – | 64 | 8.7
COC(=O)C1=C(C2CCc3nc([C@H]4CC[C@H](C(=O)O)CC4)oc3C2)NC(c2nccs2)=NC1c1ccc(F)c(F)c1Cl (single isomer, unassigned) [Compound 86d, (trans)-4-(6-(6-(2-chloro-3,4-difluorophenyl)-5-(methoxycarbonyl)-2-(thiazol-2-yl)-3,6-dihydropyrimidin-4-yl)-4,5,6,7-tetrahydrobenzo[d]oxazol-2-yl)cyclohexanecarboxylic acid] | 61.4 | – | – | 4.3
CCOC(=O)C1=C(C2Cc3cn(CCC(=O)O)nc3C(C)(C)C2)NC(c2nccs2)=NC1c1ccc(F)c(F)c1Cl (centres unmarked) [Compound 55c, 3-(5-(6-(2-chloro-3,4-difluorophenyl)-5-(ethoxycarbonyl)-2-(thiazol-2-yl)-3,6-dihydropyrimidin-4-yl)-7,7-dimethyl-4,5,6,7-tetrahydro-2H-indazol-2-yl)propanoic acid] | 9.5 | – | – | 7.1
